One experiment has as its target T1, NusA-AADC (Pseudomonas putida, UniProt Q88JU5).
T1 construct: gene PP_2552; E. coli BL21(DE3)
Nature of the experiment: HPLC of dopamine formation, cell-free extract. The following applies: 1 mM L-dopa, 50 uM PLP, 2 mM 2-ME, 50 mM potassium phosphate pH 8.0, 30 °C. The experiment is classed as biochemical.

Experiment [1] deals with T2, AADC (aromatic amino acid decarboxylase) (Pseudomonas putida, UniProt Q88JU5).
T2 construct: gene PP_2552; full-length, untagged, from pET-3a (pAADC) in E. coli BL21(DE3)
Nature of the experiment: HPLC of dopamine formation, cell-free extract. It counts as biochemical. The following applies: 1 mM L-dopa, 50 uM PLP, 2 mM 2-ME, 50 mM potassium phosphate pH 8.0, 30 °C.

For experiment [2], the target named is T3, PPIase KS-1-AADC (Pseudomonas putida, UniProt Q88JU5).
T3 construct: gene PP_2552; AADC with N-terminal solubility partner Thermococcus sp; not cut; E. coli BL21(DE3)
Nature of the experiment: HPLC of dopamine formation, cell-free extract. The experiment is classed as biochemical. The following applies: 1 mM L-dopa, 50 uM PLP, 2 mM 2-ME, 50 mM potassium phosphate pH 8.0, 30 °C.

Experiment [3] concerns the target T3, PPIase KS-1-AADC. Nature of the experiment: HPLC (AccQ-tag) of phenylethylamine produced by recombinant E. coli cells. As to conditions: 1 mM L-phenylalanine, M9 minimal medium, 25 °C, whole cells. The experiment is classed as cell-based.

T3 sequence (Q88JU5 entry or part of it): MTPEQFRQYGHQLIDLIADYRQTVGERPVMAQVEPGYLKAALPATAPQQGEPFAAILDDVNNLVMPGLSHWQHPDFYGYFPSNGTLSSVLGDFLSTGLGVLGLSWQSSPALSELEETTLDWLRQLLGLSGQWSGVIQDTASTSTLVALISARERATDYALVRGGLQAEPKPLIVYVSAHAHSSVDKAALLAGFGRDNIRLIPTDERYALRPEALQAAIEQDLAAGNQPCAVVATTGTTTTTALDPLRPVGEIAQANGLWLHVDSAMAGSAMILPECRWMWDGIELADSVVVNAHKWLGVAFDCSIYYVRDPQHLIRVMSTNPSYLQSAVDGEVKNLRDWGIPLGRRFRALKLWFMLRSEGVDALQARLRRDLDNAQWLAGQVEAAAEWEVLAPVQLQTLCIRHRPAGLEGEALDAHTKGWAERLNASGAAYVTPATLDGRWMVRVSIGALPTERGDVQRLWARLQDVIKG
T2 sequence (Q88JU5 entry or part of it): as above
T1 sequence (Q88JU5 entry or part of it): as above

On to `N[C@@H](Cc1ccc(O)c(O)c1)C(=O)O` [L-dopa], for which the “HPLC of dopamine formation, cell-free extract” value is recorded as “the AADC activity toward L-dopa was significantly higher in PPIase KS−1-AADC as compared to NusA-AADC” on NusA-AADC, “The AADC activity was measured using these cell-free extracts” in experiment [1] and “the AADC activity toward L-dopa was significantly higher in PPIase KS−1-AADC as compared to NusA-AADC” at PPIase KS-1-AADC [2].
As to `N[C@@H](Cc1ccccc1)C(=O)O` [L-phenylalanine], the “HPLC (AccQ-tag) of phenylethylamine produced by recombinant E. coli cells” value at PPIase KS-1-AADC [3] is listed as “Phenylethylamine accumulation was also higher in PPIase KS−1-AADC-producing strain”.

(Values after paper PMC8712285, “Thermococcus sp. KS-1 PPIase as a fusion partner improving soluble production of aromatic amino acid decarboxylase” (AMB Express, 2021).)
